Ki data for 60 compounds are collected here from patent publication US8435994B2, “Substituted [1,2,4]triazolo[4,3-alpha]quinoxalines as adenosine A2a receptor antagonists” (Merck Sharp & Dohme Corp., priority 2009, dated 2013).

In general, Ki refers to a measure of affinity in units of concentration, obtained from inhibition or displacement.

The target of the first assay is T1, Human A2a Adenosine Receptor (Homo sapiens, UniProt P29274).
T1 construct: purchased Receptor Biology, Inc., Beltsville, Md; RB-HA2a
T1 sequence (P29274 whole entry): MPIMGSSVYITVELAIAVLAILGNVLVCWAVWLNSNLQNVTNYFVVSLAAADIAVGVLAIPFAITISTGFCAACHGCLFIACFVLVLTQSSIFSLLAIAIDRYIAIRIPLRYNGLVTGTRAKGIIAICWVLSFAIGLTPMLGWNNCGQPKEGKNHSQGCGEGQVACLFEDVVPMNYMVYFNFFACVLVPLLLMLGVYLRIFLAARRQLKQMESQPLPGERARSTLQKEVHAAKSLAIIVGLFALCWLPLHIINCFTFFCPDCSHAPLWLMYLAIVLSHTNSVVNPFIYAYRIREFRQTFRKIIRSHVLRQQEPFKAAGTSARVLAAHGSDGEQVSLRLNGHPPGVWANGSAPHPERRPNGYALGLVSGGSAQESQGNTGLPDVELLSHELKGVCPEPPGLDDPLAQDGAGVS
Nature of the assay: Human Adenosine A2a Receptor Competition Binding Assay ([3H]-SCH 58261 displacement). To be noted: Table I; human A2a membranes, [3H]-SCH 58261 0.5 nM, Cheng-Prusoff; read-out: Activity (Ki). The procedure: Human Adenosine A2a Receptor Competition Binding Assay Protocol
A2a: Human A2a Adenosine Receptor membranes, Catalog #RB-HA2a, Receptor Biology, Inc., Beltsville, Md. Dilute to 17 μg/100 μl in membrane dilution buffer (see below).
Membrane dilution buffer: Dulbecco's Phosphate Buffered Saline (Gibco/BRL)+ 10 mM MgCl2.
Compound Dilution Buffer: Dulbecco's Phosphate Buffered Saline (Gibco/BRL)+10 mM MgCl2 supplemented with 1.6 mg/ml methyl cellulose and 16% DMSO. Prepared fresh daily.
A2a: [3H]-SCH 58261 [7-(2-phenylethyl)-5-amino-2-(2-furyl)-pyrazolo-[4,3-e]-1,2,4-triazolo[1,5-c]pyrimidine], custom synthesis, Amersham Pharmacia Biotech, Piscataway, N.J. Stock is prepared at 1 nM in membrane dilution buffer. Final assay concentration is 0.5 nM. SCH-58261 is discussed in Zocchi et al., J Pharmacol Exp Ther. 276(2):398-404 (1996).
A2a: To determine non-specific binding, add 100 nM CGS 15923 (RBI, Natick, Mass.). Working stock is prepared at 400 nM in compound dilution buffer.
Prepare 1 mM stock solutions of compounds in 100% DMSO. Dilute in compound dilution buffer. Test at 10 concentrations ranging from 3 μM to 30 μM. Prepare working solutions at 4× final concentration in compound dilution buffer.
Perform assays in deep well 96 well plates. Total assay volume is 200 μl. Add 50 μl compound dilution buffer (total ligand binding) or 50 μl […] working solution (A2a non-specific binding) or 50 μl of drug working solution.
Turning to `Nc1nc2cc(F)c(F)cc2n2c(=O)n(Cc3c(F)cccc3F)nc12` [Compound 1], the Ki was 0.4 nM.

As for `Nc1nc2ccccc2n2c(=O)n(Cc3ccccc3)nc12` [Compound 2], the Ki came to 0.7 nM.

`Cc1cccc2c1nc(N)c1nn(Cc3ccccc3)c(=O)n12` [Compound 3]: the Ki came to 0.6 nM.

In the case of `Nc1ccccc1Cn1nc2c(N)nc3ccccc3n2c1=O` [Compound 5], the Ki is 0.7 nM.

In the case of `Nc1nc2ccc(F)cc2n2c(=O)n(Cc3ccccc3)nc12` [Compound 6], the Ki was 0.9 nM.

For the compound `Nc1nc2ccc(F)cc2n2c(=O)n(Cc3c(F)cccc3F)nc12` [Compound 7], the Ki was found to be 0.7 nM.

Consider `Nc1nc2ccccc2n2c(=O)n(Cc3cccc(F)c3F)nc12` [Compound 8], for which the Ki came to 1 nM.

With `Nc1nc2ccccc2n2c(=O)n(Cc3c(F)cccc3F)nc12` [Compound 9], the Ki is 1 nM.

Consider `Nc1nc2ccc(F)cc2n2c(=O)n(Cc3ccc(F)cc3)nc12` [Compound 10], for which the Ki amounted to 1 nM.

Consider `Nc1nc2ccccc2n2c(=O)n(Cc3ccccc3CO)nc12` [Compound 11], for which the Ki was determined as 1.2 nM.

Consider `Nc1nc2ccc(F)cc2n2c(=O)n(Cc3c(F)cc(F)cc3F)nc12` [Compound 12], for which the inhibitory constant (Ki) was determined as 1 nM.

As to `Nc1nc2ccccc2n2c(=O)n(Cc3c(F)cc(F)cc3F)nc12` [Compound 13], the Ki was found to be 1.4 nM.

Consider `N#Cc1ccccc1Cn1nc2c(N)nc3ccccc3n2c1=O` [Compound 14], for which the Ki was 1.2 nM.

As to `Nc1nc2cc([N+](=O)[O-])ccc2n2c(=O)n(Cc3ccccc3)nc12` [Compound 15], the Ki came out at 1.4 nM.

Take `Nc1nc2cc(Cl)c(Cl)cc2n2c(=O)n(Cc3ccccc3)nc12` [Compound 16]: the Ki worked out at 1.4 nM.

For `Nc1nc2cc(F)c(F)cc2n2c(=O)n(Cc3ccccc3)nc12` [Compound 17], the Ki is 1.4 nM.

As to `Nc1nc2ccccc2n2c(=O)n(Cc3ccc(F)cc3)nc12` [Compound 18], the Ki is 1.9 nM.

With `COC(=O)c1ccc2c(c1)nc(N)c1nn(Cc3ccccc3)c(=O)n12` [Compound 19], the Ki worked out at 1.7 nM.

Consider `Nc1nc2cc(C(F)(F)F)ccc2n2c(=O)n(Cc3c(F)cccc3F)nc12` [Compound 20], for which the Ki turned out to be 1.8 nM.

Consider `Nc1nc2ccccc2n2c(=O)n(Cc3ccccc3C(F)(F)F)nc12` [Compound 21], for which the Ki was found to be 1.8 nM.

Consider `Nc1nc2ccc(F)cc2n2c(=O)n(Cc3c(F)cccc3C(F)(F)F)nc12` [Compound 22], for which the Ki was 2.2 nM.

Turning to `CC(C)(O)c1ccccc1Cn1nc2c(N)nc3ccccc3n2c1=O` [Compound 23], the Ki worked out at 2 nM.

Take `Nc1nc2cc(F)c(F)cc2n2c(=O)n(Cc3c(F)cc(F)cc3F)nc12` [Compound 24]: the Ki worked out at 2.8 nM.

As to `Nc1nc2cc(C=O)ccc2n2c(=O)n(Cc3ccccc3)nc12` [Compound 25], the Ki worked out at 2.6 nM.

Regarding `COC(=O)c1ccccc1Cn1nc2c(N)nc3ccccc3n2c1=O` [Compound 26], the Ki worked out at 1.9 nM.

As for `Nc1nc2ccccc2n2c(=O)n(Cc3c(F)cccc3C(F)(F)F)nc12` [Compound 27], the Ki came to 2.5 nM.

Regarding `Nc1nc2ccc(Cl)cc2n2c(=O)n(Cc3ccccc3)nc12` [Compound 28], the Ki amounted to 2.7 nM.

As to `Nc1nc2ccccc2n2c(=O)n(Cc3ccccc3[N+](=O)[O-])nc12` [Compound 29], the Ki turned out to be 3.2 nM.

For the compound `Nc1nc2ccccc2n2c(=O)n(Cc3c(Cl)cccc3Cl)nc12` [Compound 30], the inhibition constant (Ki) was determined as 3.2 nM.

For the compound `CC(=O)c1ccc2c(c1)nc(N)c1nn(Cc3ccccc3)c(=O)n12` [Compound 31], the Ki worked out at 3 nM.

As to `N#C/N=c1\n(Cc2ccccc2)nc2c(N)nc3ccccc3n12` [Compound 32], the Ki is 4.7 nM.

`Nc1ccc2c(c1)nc(N)c1nn(Cc3ccccc3)c(=O)n12` [Compound 33]: the Ki stood at 5.6 nM.

On to `N=c1n(Cc2ccccc2)nc2c(N)nc3ccccc3n12` [Compound 35], for which the Ki was 6 nM.

With `Cc1cccc2nc(N)c3nn(Cc4ccccc4)c(=O)n3c12` [Compound 36], the Ki worked out at 7.1 nM.

Consider `Nc1nc2ccccc2n2c(=O)n(Cc3cc(F)cc(F)c3)nc12` [Compound 37], for which the Ki worked out at 7.4 nM.

As for `CC(=O)Nc1ccccc1Cn1nc2c(N)nc3ccccc3n2c1=O` [Compound 38], the Ki turned out to be 7.4 nM.

Consider `CN(C)/C=N\c1ccccc1Cn1nc2c(N)nc3ccccc3n2c1=O` [Compound 39], for which the Ki was 8.2 nM.

As to `Nc1nc2cc(CO)ccc2n2c(=O)n(Cc3ccccc3)nc12` [Compound 40], the Ki was determined as 8.6 nM.

For the compound `CS(=O)(=O)c1ccccc1Cn1nc2c(N)nc3ccccc3n2c1=O` [Compound 41], the Ki was 8.3 nM.

For the compound `Nc1nc2ccc(C(F)(F)F)cc2n2c(=O)n(Cc3c(F)cccc3F)nc12` [Compound 42], the Ki was determined as 10.2 nM.

Consider `COc1ccc2nc(N)c3nn(Cc4ccccc4)c(=O)n3c2c1` [Compound 43], for which the Ki stood at 12.1 nM.

With `COc1cccc(OC)c1Cn1nc2c(N)nc3ccccc3n2c1=O` [Compound 44], the Ki worked out at 14 nM.

Turning to `Nc1nc2ccccc2n2c(=O)n(CCc3ccccc3)nc12` [Compound 45], the Ki worked out at 29.2 nM.

As for `CCCCNc1nc2ccc(F)cc2n2c(=O)n(Cc3ccccc3)nc12` [Compound 46], the Ki stood at 28.9 nM.

For the compound `Nc1nc2ccccc2n2c(=O)n(CC3CC3)nc12` [Compound 47], the Ki came to 32.3 nM.

With `CN(C)C(=O)c1ccccc1Cn1nc2c(N)nc3ccccc3n2c1=O` [Compound 48], the Ki came to 28.9 nM.

For the compound `Nc1nc2cc(CO)ccc2n2c(=O)n(Cc3ccccc3F)nc12` [Compound 49], the Ki was 38.4 nM.

In the case of `Nc1nc2cccnc2n2c(=O)n(Cc3ccccc3)nc12` [Compound 50], the Ki amounted to 46.3 nM.

Turning to `COc1ccc2nc(N)c3nn(Cc4ccccc4C(F)(F)F)c(=O)n3c2c1` [Compound 51], the Ki amounted to 51.5 nM.

As for `CC(O)c1ccc2c(c1)nc(N)c1nn(Cc3ccccc3)c(=O)n12` (stereo not drawn) [Compound 52], the Ki worked out at 54.9 nM.

With `Nc1nc2ccc(CO)cc2n2c(=O)n(Cc3ccccc3)nc12` [Compound 53], the Ki is 60 nM.

Regarding `Nc1nc2ccccc2n2c(=O)n(Cc3ccccc3C(=O)N3CCOCC3)nc12` [Compound 54], the Ki stood at 66.4 nM.

Take `COC(=O)c1ccc2nc(N)c3nn(Cc4ccccc4)c(=O)n3c2c1` [Compound 55]: the Ki is 70.8 nM.

Take `CC(c1ccccc1)n1nc2c(N)nc3ccccc3n2c1=O` (stereo not drawn) [Compound 56]: the Ki was found to be 91.1 nM.

Staying with this assay, now noted: Table II; human A2a membranes, [3H]-SCH 58261 0.5 nM, Cheng-Prusoff; read-out: Activity (Ki in nM).
Consider `Nc1nc2ccccc2n2cc(Cc3ccccc3)nc12` [Compound 57], for which the Ki stood at 4.1 nM.

As to `Nc1nc2ccccc2n2cc(-c3ccccc3)nc12` [Compound 58], the Ki was 57 nM.

Turning to `Nc1nc2ccccc2n2cc(C(=O)c3ccccc3)nc12` [Compound 59], the Ki was 42 nM.

Regarding `Nc1nc2ccccc2n2cc(C(O)c3ccccc3)nc12` (stereo not drawn) [Compound 60], the Ki was 29 nM.

The assay is the same for the next values; noted with them: assay of Example 25; read-out: Ki value for the adenosine A2a receptor.
Consider `Nc1nc2ccccc2n2nc(Cc3ccccc3)nc12` [Compound 61], for which the Ki was 0.7 nM.

Turning to `Nc1nc2ccccc2c2nc(Cc3ccccc3)cn12` [Compound 62], the Ki is 0.7 nM.
